Reference: article PMC9415894, “Development of Cross-Reactive Antibodies for the Identification and Treatment of Synthetic Cannabinoid Receptor Agonist Toxicity” (Vaccines, 2022)

Tests used:
Type in all cases: binding, mice
[1] = test system: antibodies generated following vaccination with hapten 4; experiment: Competitive ELISA, day 35 pooled sera of hapten 4 vaccine group; conditions: for % Inhibition, HAPTEN 4: SCRA at 10 μM; for % Inhibition, HAPTEN 4 / IC50: day 35 pooled sera; for IC50: 11 concentrations; for binding by hapten 4 antibodies (in words): day 35 sera
Description: (§1) Vaccination: Vaccine formulation consisted of our bioconjugates at 1 mg/mL (100 μg/mouse), Alum (50 μg/mouse) and a 1 mg/mL CpG ODN 1826 (50 μg/mouse) in 1X PBS solution. Vaccines were shaken at 4 °C for 45 min prior to animal use. Mock vaccines consisted of the same components with the bioconjugate replaced with native KLH. All animals were vaccinated on day zero and received two boosts, one on day 14 and one on day 28. Sera was collected from each animal on days 21 and 35 via retroorbital blood draws.
(§2) Antibody Titers: Costar® 96-well plates were coated with 25 μL of a 5 μg/mL solution of hapten-BSA conjugate and incubated overnight at 37 °C. Plates were then methanol fixed and non-specific protein binding was blocked with 5% Blotto for 30 min. Pooled sera from either day 21 (1:100 in 5% blotto) or 35 (1:400) were added and serially diluted across the plate before incubating at 37 °C for 60 min. Plates were then washed with 1X PBS prior to the addition of secondary antibody conjugated to horse-radish peroxidase, which incubated at 37 °C for 30 min. Equal parts tetramethylbenzidine and hydrogen peroxide (50 μL) were added to each well and reacted for 15 min before being quenched with 50 μL of 2M sulfuric acid. Optical densities were determined at 450 nm using MiniMax 300 plate reader (Molecular Devices). Lastly, midpoint titers were calculated from the % optical density versus log(dilution) using the log(inhibition) vs response variable slope equation on GraphPad Prism v9 (San Diego, CA, USA).
(§3) Competitive ELISA: Costar® 96-well plates were coated as described in the antibody titer section. After the plates are blocked, 25 μL of a 1:titer solution of each BSA-hapten conjugate is added to every well. Equal volume of a 40 μM solution of each SCRA is then added to column one, and 1:2 serially diluted concentrations added across the wells. Optical densities were determined as in titer experiments, and percent inhibitions were evaluated with GraphPad Prism 9 as in titer experiments.

[2] = test system: antibodies generated from vaccination with hapten 2; experiment: Competitive ELISA, day 35 pooled sera of hapten 2 vaccine group; conditions: for % Inhibition, HAPTEN 2: SCRA at 10 μM, day 35 pooled sera
Description: as §1, §2, §3

[3] = test system: antibodies generated following vaccination with hapten 3; experiment: Competitive ELISA, day 35 pooled sera of hapten 3 vaccine group; conditions: for % Inhibition, HAPTEN 3: SCRA at 10 μM; for % Inhibition, HAPTEN 3 / IC50: day 35 pooled sera; for IC50: 11 concentrations; for binding by hapten 3 antibodies (in words): day 35 sera
Description: as §1, §2, §3

[4] = test system: antibodies generated from vaccination with hapten 1; experiment: Competitive ELISA, day 35 pooled sera of hapten 1 vaccine group; conditions: for % Inhibition, HAPTEN 1: SCRA at 10 μM; for % Inhibition, HAPTEN 1 / IC50: day 35 pooled sera; for IC50: 11 concentrations; for reactivity of hapten 1 antibodies (in words): day 35 sera
Description: as §1, §2, §3

Row | SMILES | % Inhibition, HAPTEN 4 [1] | IC50 [1] | binding by hapten 4 antibodies (in words) [1] | % Inhibition, HAPTEN 2 [2] | % Inhibition, HAPTEN 3 [3] | IC50 [3] | binding by hapten 3 antibodies (in words) [3] | % Inhibition, HAPTEN 1 [4] | IC50 [4] | reactivity of hapten 1 antibodies (in words) [4] | reactivity of hapten 2 antibodies (in words) ([2]; day 35 sera) | IC50 for hapten 1 relative to compound 1 ([4]; compared with IC50 against compound 1)
1 | CCCCCn1nc(C(=O)NC(C(=O)OC)C(C)C)c2ccccc21 (centres unmarked) [Compound 5, MMB-PINACA] | 85.5% | 334 nM | bind | 25.5% | 82.6% | 269 nM | micromolar to sub-micromolar | 6.9% | – | – | – | –
2 | CCCCCn1cc(C(=O)c2cccc3ccccc23)c2ccccc21 [Compound 1, JWH-018] | 10.9% | – | – | 17.7% | 14.6% | – | – | 60.0% | 5540 nM | micromolar | – | –
3 | COC(=O)C(NC(=O)c1nn(Cc2ccc(F)cc2)c2ccccc12)C(C)C (centres unmarked) [Compound 7, AMB-FUBINACA] | 77.7% | 966 nM | sub-micromolar | 30.7% | 76.0% | 299 nM | sub-micromolar | 11.1% | – | – | – | –
4 | COC(=O)C(NC(=O)c1cn(CCCCCF)c2ccccc12)C(C)C (centres unmarked) [Compound 4] | 54.3% | 6690 nM | bind | 19.9% | 69.0% | 744 nM | micromolar to sub-micromolar | 8.8% | – | – | – | –
5 | CCCCCn1cc(C(=O)Oc2cccc3ccccc23)c2ccccc21 [Compound 8, NAPIC] | 11.0% | – | – | 31.5% | 19.2% | – | – | 13.6% | – | no reactivity | little to no reactivity | –
6 | O=C(c1cccc2ccccc12)c1cn(CCCCCF)c2ccccc12 [Compound 2, AM-2201] | 14.4% | – | – | 29.5% | 18.0% | – | – | 79.3% | 1140 nM | micromolar | – | approximately five times lower
7 | COC(=O)C(NC(=O)c1nn(CCCCCF)c2ccccc12)C(C)C (centres unmarked) [Compound 6, 5F-AMB] | 63.9% | 2660 nM | bind | 28.7% | 57.4% | 3320 nM | micromolar to sub-micromolar | 16.8% | – | – | – | –
8 | CCCCCn1cc(C(=O)NC(C(=O)OC)C(C)C)c2ccccc21 (centres unmarked) [Compound 3, MMB-PICA] | 71.0% | 1260 nM | bind | 15.2% | 91.8% | 38 nM | micromolar to sub-micromolar | 0.0% | – | – | – | –
